Data set [1] relates to rat cardiomyocytes. Put plainly: Cell uptake (internalization) assay with labeled rotenone derivatives. In kind it is cell-based. The following applies: 0.5 μCi tracer, time points up to 5 min. The method, then: An internalization assay was used to test the in vitro function of candidate perfusion tracers. In this assay, cultures of rat cardiomyocytes were plated at a density of 3-5×10^5 cells/mL into 24-well tissue culture plates. The cardiomyocytes were then incubated with 0.5 μCi of radiolabeled tracer ^99mTc-tetrofosmin (Myoview™) or [^123I] iodinated rotenone (mixture containing isomers 6-9) mixed in cell culture medium (DMEM) and incubated for up to five minutes. At different time points, the total supernatant was collected, the cells were washed twice with PBS and then exposed and lysed with 1 M NaOH for 15 min. Samples were counted in a gamma well counter and the cellular protein was determined for the lysed samples. The data was analyzed to represent the total “internalized” fraction expressed as cpm per total protein (FIG. 4).

Data set [2] relates to pig heart. The data set can be described thus: Uptake of radiotracers as a function of myocardial blood flow (MBF) in pig heart. The format is in vivo. The settings on record: for myocardial flow rate at which uptake begins to level off (roll off): two hours after injection, stress and induced ischemic conditions. From the text: The tissue and blood samples were weighed and measured using a gamma well counter to determine the amount of gamma radiation emitted by the I-123 radiolabel of the radio-iodinated tracers of the present invention. The measured gamma radiation in each segment represents the combined amount of gamma radiation emitted by the tracers in that segment during the resting and stressed states of the heart. The counts and the weights of the samples were also used to calculate the percentage of injected dose per gram of tissue (% ID/g). After the I-123 in the blood and tissue samples had completely decayed, both the tissue and the blood were dried in an oven at 70° C. for 48-72 h, the samples were sent for neutron activation and the gamma radiation emitted by each of the resulting radioactive [^198Au]gold-containing microspheres and [^153Sm]samarium-containing microspheres, which were embedded in the samples, were measured. Polar maps of the resting and stressed states of the isolated heart of the pig were generated using MATLAB™ to assemble the gamma measurement results in all the transected segments from the bottom (apex) to the top (AV groove) of the pig heart.
The myocardial blood flow (MBF) that was present in the tissue samples during the resting and stressed states was determined from the total amount of gamma radiation emitted from each of the radioactive gold and samarium microspheres, respectively, in the isolated transections of the heart of the pig and the dried blood sample according to the following equation: MBF=[(Reference blood sample withdrawal rate (4 mL/min)/(Weight of myocardial sample (g)]×[Isotope count (myocardial sample)/Isotope counts (reference blood sample)].
FIG. 8 illustrates a plot of uptake (percent of injected dose per gram of tissue; % ID/g) of the radiotracer compounds of the present invention as a function of the myocardial blood flow in the pig heart under stress and induced ischemic conditions as determined using the marked microspheres.

Data set [3] can be described thus: Literature isolated perfused heart data of Marshall et al. 2001. The source says: A slower myocardial exit is beneficial for clinical diagnostic imaging since this permits the physician to gather images over a longer period of time thereby increasing image resolution, sensitivity and quality.
Marshall et al. report slopes of 0.29 and 0.78 for the fitted linear lines to the maximal uptake data for ^99mTc-sestamibi and ^125I-rotenone, respectively. The slopes of the fitted lines to the data for ^99mTc-sestamibi and the isomers of Mixture A shown in FIG. 10 of the present application are 0.33 and 0.86, respectively. The value of the ratio of the slopes of the fitted lines for ^125I-rotenone and ^99mTc-sestamibi from Marshall et al. is 2.69, while the value of the ratio of the slopes of the fitted lines for Mixture A and ^99mTc-sestamibi shown in FIG. 10 is 2.61. […] A linear uptake of tracer with increasing flow is especially desired in a clinical setting since in patients, deficiencies in myocardial perfusion are almost exclusively detected at higher blood flow rates, i.e. during a stress test by comparison of low (ischemic) and high flow (normal) areas.

For data set [4] the following is noted: compared with FIG. 9; cited from earlier work.
Data set [5] is described as follows: Ex vivo biodistribution in Sprague-Dawley rats. The following applies: 2 hr p.i. The method, then:
An amount of 0.5 mL of a 2.4 mCi/mL mixture of compounds 6-9 (Mixture A: composition comprising isomeric mixture of 12% 6 and 7 diastereomers; 88% 8 and 9 diastereomers) in 7% ethanol was diluted with 0.58 mL of 10 mM sodium acetate, pH 6.5 and 0.023 mL of 95% ethanol, to produce a 1.1 mL of a 1.1 mCi/mL solution having a value of pH of about 5. An amount of 0.8 mL of this solution (0.9 mCi) was injected through the tail veins of 14 Sprague-Dawley rats. Six of the rats were used to assess biodistribution of the mixture of compounds 6-9 after two hours, and the remaining eight rats were used to determine the biodistribution of the compounds after 24 hours. Selected organs were collected and weighed and the activity was measured for each organ with a gamma well counter using the detection range of 138-207 keV, and the measured values of activity were decay-corrected to the time of injection. The values of percentage of injected dose per gram of tissue (% ID/g) were calculated by taking the ratio of the activity in the organ over the total activity injected per gram of tissue. Uptake in the heart of the rat was confirmed by the SPECT/CT images shown in FIG. 5, in which the heart is well defined.
A biodistribution study was conducted according to the method described above using purified fractions of the mixture of isomers 6-9 (Mixture A).
FIGS. 3B-3E show HPLC chromatograms of the four separate fractions used in the biodistribution study: Fraction 1: fraction comprising 100% of Component A*; Fraction 2: fraction comprising an isomeric mixture comprising 15.2% Component A* and 84.8% Component B*; Fraction 3: fraction comprising an isomeric mixture comprising 4.4% Component A*, 4.4% Component B* and 91.2% Component C*; Fraction 4: fraction comprising an isomeric mixture comprising 1.5% Component A*, 0.8% Component B* and 97.7% Component D*.

For data set [6], the system named is rabbit hearts. Put plainly: Myocardial distribution in isolated retrograde perfused (Langendorff) rabbit heart. The following applies: for fractional appearance rates at later time points / initial peak fractional venous appearance rate: flow rate 1.7 ml/min/g LV, FIG. 9, qualitative. Also on record: species or system New Zealand White rabbits. The method, then: Preparation of retrograde perfusion (Langendorff) was performed as previously described (R. C. Marshall, P. Powers-Risius, B. W. Reutter, S. E. Taylor, H. F. VanBrocklin, R. H. Huesman, T. F. Budinger J Nucl Med. 2001; 42:272-281, which is incorporated by reference herein) using hearts from 1.5-2.5 kg male New Zealand White rabbits (Charles River, Wilmington Mass.). Following an injection of heparin (5 mg/kg) and median sternotomy, hearts were excised keeping the ascending aorta and aortic branches, lungs and thymus intact. The hearts were immediately placed into an ice-cold bath containing modified Tyrode's solution ([…], 1 mM MgCl2, 28 mM NaHCO3, 0.44 mM NaH2PO4, 2.5 mM CaCl2, 6 mM KCl, 5 mM glucose, […] with 22 g/L BSA and aerated with 95% O2/5% CO2) and thymus and fatty tissue were quickly removed. The hearts were then suspended on an aortic cannula and perfused with pre-warmed modified Tyrode's buffer through a water jacketed, temperature regulated Langendorff perfusion system (Radnotti, Calif., USA) at a constant flow rate. Total time for suspension onto the Langendorff apparatus was typically 60 seconds or less. Following suspension on the aortic cannula, the remaining lung, trachea and extraneous tissues were removed.
Fluid from Thebesian circulation was drained via a polyethylene catheterized apical drain. A fluid filled latex ballon connected to a pressure transducer (Radnotti) was inserted into the left ventrical via the left atrium and mitral valve. Following excision of the right atrium, a pacing electrode (Radnotti) was placed at the level of the atria to allow controlled pacing of the heart.
Following final preparation, the left ventricular balloon was inflated to achieve an end-diastolic pressure of approximately 8-10 mmHg with a constant systolic pressure held between 60-80 mm Hg. The heart was continually perfused with modified Tyrode's solution warmed to 38° C. and was held in an enclosed chamber to maintain humidity and temperature. The heart was paced with a Grass SD9 stimulator (Harvard Apparatus, Montreal QC) at 180 beats per minute with a stimulus of 4 V delivered over 4 ms. Perfusion and ventricular pressures were monitored throughout the experiment using a BioPac data acquisition system (BioPac, Montreal QC).
Radioactivity from all samples were counted in a gamma counter and data was analyzed using Matlab software. […] Maximal uptake values were determined for ^99mTc-sestamibi and Mixture A at varying flow rates (0.35-3.1 ml/min/g LV wet weight).

The subject of data set [7] is dog heart. The following applies: representative dog, critical LAD stenosis, intravenous adenosine; cited from earlier work.
The test system of data set [8] is dog heart. The data set can be described thus: Literature tracer uptake vs microsphere flow in dog with critical LAD stenosis (Broisat et al., Glover et al.). In kind it is in vivo. The source says:
The slope of a non-linear fitted line to the ^123I-ZIROT data shown in FIG. 3 of Broisat et al. is −3.59.

[9] abbreviates: flow rates 0.35-3.1 ml/min/g LV wet weight.

Consider “Technetium (^99mTc) tetrofosmin [^99mTc-tetrofosmin]”, for which the “cellular internalization over time (cpm per total protein)” value in data set [1] is given as “evident at 15 s but a gradual increase was seen up to 5 min”. Further, the “myocardial flow rate at which uptake begins to level off (roll off)” value in data set [2] stood at 2 mL/min/g.

As for `COc1cc2c(cc1OC)C1C(=O)c3ccc4c(c3OC1CO2)CC(/C(C)=C\[125I])O4` (stereo not shown) [^125I-rotenone, 7′-Z-[^125I]iodorotenone], in data set [3], the “ratio of the slopes of the fitted lines vs ^99mTc-sestamibi (Marshall et al.)” value was found to be 2.69. The “venous effluent rate at the later portions of the curve (FIG. 1 of Marshall et al.)” value in data set [4] is “higher venous effluent rate relative to the isomers of Mixture A”.

In the case of `COc1cc2c(cc1OC)[C@@H]1C(=O)c3ccc4c(c3O[C@@H]1CO2)C[C@H](C(C)([123I])CO)O4` (single isomer, unassigned) [Fraction 1], in data set [5], the Blood came out at 0.191 ± 0.040 % ID/g, the Brain is listed as 0.063 ± 0.013 % ID/g, the Femur worked out at 0.239 ± 0.083 % ID/g and the Heart stood at 1.617 ± 0.335 % ID/g. Further, in data set [5], the Heart/Blood ratio turned out to be 8.46 ± 0.51, the Heart/Liver ratio was 1.20 ± 0.35, the Heart/Lung ratio was 4.54 ± 0.59 and the Intestine is 0.787 ± 0.186 % ID/g. Moreover, in data set [5], the Kidney came to 0.634 ± 0.099 % ID/g, the Liver came out at 1.363 ± 0.101 % ID/g, the Lung is listed as 0.357 ± 0.059 % ID/g and the Muscle is listed as 0.369 ± 0.117 % ID/g. In data set [5], this compound came in with a Spleen of 0.177 ± 0.031 % ID/g, a Stomach of 1.628 ± 0.837 % ID/g, a Testis of 0.128 ± 0.017 % ID/g and a Thyroid of 0.826 ± 0.191 % ID/g. The compound further showed a Urine in data set [5] of 0.528 ± 0.134 % ID/g.

`[C-]#[N+]CC(C)(C)OC.[C-]#[N+]CC(C)(C)OC.[C-]#[N+]CC(C)(C)OC.[C-]#[N+]CC(C)(C)OC.[C-]#[N+]CC(C)(C)OC.[C-]#[N+]CC(C)(C)OC.[Tc]` [^99mTc-sestamibi]: in data set [6], the “fractional appearance rates at later time points” value is listed as “higher fractional appearance rates” and the “initial peak fractional venous appearance rate” value was “lower fractional venous appearance rates”. Further, in data set [6] (setting [9]), the “intercept of linear regression, maximum net uptake vs flow” value is recorded as 0.14 and the “slope of linear regression, maximum net uptake vs flow (FIG. 10)” value stood at 0.33. Further, the “slope of non-linear fitted line, activity (% normal) vs microsphere flow (FIG. 4 of Glover et al.)” value in data set [7] is listed as −143. Also, in data set [8] (representative dog, critical LAD stenosis, intravenous adenosine), the “standardized slope (Glover et al. slope divided by 100)” value was −1.43. Also, the “slope of the non-linear fitted line, uptake (% ID/g) vs MBF (FIG. 8)” value in data set [2] (pig hearts) is given as −1.21. Also, in data set [2], the “myocardial flow rate at which uptake begins to level off (roll off)” value worked out at 1.5 mL/min/g.

For `COc1cc2c(cc1OC)[C@@H]1C(=O)c3ccc4c(c3O[C@@H]1CO2)C[C@H](C(C)([123I])CO)O4` (single isomer, unassigned) [B*], in data set [5], the Heart entry is “slightly lower”, the Heart/Liver ratio entry is reported as “relatively higher”, the Intestine entry is reported as “significantly higher than others” and the Liver entry is “much lower”.

On to `COc1cc2c(cc1OC)C1C(=O)c3ccc4c(c3OC1CO2)CC(/C(C)=C\[123I])O4` (stereo not shown) [^123I-ZIROT, 7-(Z)-[^123I]iodorotenone], for which the “slope of non-linear fitted line, uptake vs microsphere flow (FIG. 3 of Broisat et al.)” value in data set [7] is −3.59. The “ratio of slope (Broisat et al.) to standardized ^99mTc-Sestamibi slope (Glover et al.)” value in data set [8] (dog literature data) worked out at 2.5.

With `[201Tl]` [^201Tl, ^201Thallium], in data set [6], the “fractional appearance rates at later time points” value is “higher fractional appearance rates” and the “initial peak fractional venous appearance rate” value is listed as “lower fractional venous appearance rates”.

The values are drawn from patent US9133208B2, “Radiolabelled rotenone derivatives and their use in SPECT imaging” (priority 2011, dated 2015).
